# Data published in article PMC6148246, “HS-1371, a novel kinase inhibitor of RIP3-mediated necroptosis” (Experimental & Molecular Medicine, 2018).
# How the values were obtained:
# [1] = test system: RAW264.7 macrophage cells; experiment: LPS plus zVAD-induced cytokine expression in RAW264.7 cells (real-time PCR); assay type: cell-based, mouse; details: RAW264.7, LPS + zVAD, 5 and 10 μM, pre 1 h or post 2 h
# Procedure: Total RNA was extracted using the TRIzol reagent (Life Technologies) according to the manufacturer’s instructions. Total RNA (1 μg) from each sample was converted to cDNA using MMLV reverse transcriptase (MGmed, Seoul, Korea). Equal amounts of cDNA product were used in reverse transcription-PCR conducted using the GoTaq® Green Master Mix (Promega). Real-time PCR amplification was performed using iQ™ SYBR® Green Supermix (Bio-rad). […]
# HeLa, L929, and MEF cells were pretreated with HS-1371 (5 μM) for 2 h, and treated with TNF (30 ng/mL) for indicated time points. Cell lysates were analyzed by immunoblotting. […]
# (a) RAW264.7 cells were treated with LPS (1 μg/mL) for indicated time points and cell lysates were analyzed by immunoblotting.
# (b) RAW264.7 cells were pretreated with zVAD (20 μM) for 1 h and then treated with LPS (1 μg/mL) for indicated time points. Cell lysates were analyzed by immunoblotting.
# (c) IL-6, TNF-α, and IL-1β expression levels were determined by RT-PCR analysis. […]
# (d) RAW264.7 cells were pretreated with zVAD (20 μM) and HS-1371 (5 μM) for 1 h and then treated with LPS (1 μg/mL) for 4 h. Cell lysates were analyzed by immunoblotting (left panel).
# IL-1β and IL-6 expression levels were determined by real-time PCR analysis. […]
# (e) IL-1β, IL-6 and TNF-α expression levels were determined by real -time PCR analysis. […]
# RIP3 = RIP3 (Homo sapiens, UniProt Q9Y572); experiment: TNF (TSZ)-induced RIP3 and MLKL phosphorylation in HT-29 cells (immunoblot); assay type: cell-based; parameters: RIP3-expressing HT-29 cells; endogenous in cells; host or cells: HT-29
# Chain of RIP3 (Q9Y572 whole entry): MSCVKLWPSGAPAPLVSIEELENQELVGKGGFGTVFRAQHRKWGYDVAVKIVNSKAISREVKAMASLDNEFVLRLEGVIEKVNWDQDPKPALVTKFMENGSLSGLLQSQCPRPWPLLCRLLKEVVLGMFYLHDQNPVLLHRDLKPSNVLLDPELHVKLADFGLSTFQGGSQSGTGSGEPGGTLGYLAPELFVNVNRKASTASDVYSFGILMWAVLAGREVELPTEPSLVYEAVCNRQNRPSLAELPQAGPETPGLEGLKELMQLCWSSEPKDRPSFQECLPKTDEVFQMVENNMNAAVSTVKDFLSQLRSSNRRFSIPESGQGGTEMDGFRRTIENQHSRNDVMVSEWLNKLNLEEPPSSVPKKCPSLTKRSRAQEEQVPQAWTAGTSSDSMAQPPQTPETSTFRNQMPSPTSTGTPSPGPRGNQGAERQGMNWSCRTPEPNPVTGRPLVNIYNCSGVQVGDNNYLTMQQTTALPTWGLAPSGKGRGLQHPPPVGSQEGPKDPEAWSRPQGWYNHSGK
# Procedure: Cells were rinsed in cold phosphate-buffered saline (PBS) and lysed in M2 buffer containing 20 mM Tris at pH 7, 0.5% NP-40, 250 mM NaCl, 3 mM EDTA, 3 mM EGTA, 2 mM DTT, 0.5 mM PMSF, 20 mM β-glycerol phosphate, 1 mM sodium vanadate, and 1 μg/mL leupeptin. The cell extracts were subjected to western blot analysis. For immunoprecipitation, lysates were mixed and precipitated with antibody and protein A-agarose beads overnight or for 4 h at 4 °C. Bound proteins were removed by boiling in SDS and resolved by SDS-PAGE, and immunoblotting was visualized by enhanced chemiluminescence (ECL, Amersham).
# Fig. 2 Novel inhibitors can block RIP3 S227 phosphorylation. a Western blotting showing various kinase inhibitor effects on RIP3 S227 auto-phosphorylation. HT-29 cells were treated with four tested kinase inhibitors (1308, 1336, 1338, and 1371, 10 μM) for 9 h. As a control, KK5101 (Trk alpha inhibitor) and HS829 (IKK beta inhibitor) were also treated at a concentration of 10 μM for 9 h. Prototypical necroptosis stimuli (TNF + zVAD + either cycloheximide or SMAC mimetic; hereafter referred to as TCZ or TSZ) were applied for 6 h. […] HT-29 cells were treated with 4 tested kinase inhibitors for 24 h, and cell viability was analyzed by MTT assay or phase-contrast microscopy. […] HT-29 cells were pretreated with necrostatin-1 (Nec-1, 40 μM), dabrafenib (DAB, 10 μM) or necrosulfonamide (NSA, 1 μM) for 2 h and then treated with TSZ for 6 h. […] HT-29 cells were pretreated with four tested kinase inhibitors for 2 h and then treated with TSZ for 6 h. Cell lysates were analyzed by immunoblotting. f HT-29 cells were pretreated with Nec-1 (40 μM), DAB (5 μM) or HS-1371 (5 μM) for 2 h and then treated with TSZ for 4 h. Cell lysates were immunoprecipitated with anti-RIP3 antibody. Immunoprecipitates and total lysates were analyzed by Western blotting
# TNFα Smac mimetic and the caspase inhibitor zVAD (hereafter referred to as TSZ) is a classical combination that is used to induce RIP3-mediated necroptotic cell death[10],[32]. We first verified that three established pharmacological inhibitors of necroptosis, necrostatin-1 (Nec-1), necrosulfonamide (NSA), and dabrafenib (DAB) could block TNF-induced necroptosis (Fig. 2d). Of these inhibitors, Nec-1 inhibits RIP1 kinase activity[33],[34], DAB inhibits RIP3 kinase activity, and NSA inhibits MLKL functions downstream of RIP3 phosphorylation. […] Next, we tested whether these four inhibitors would inhibit TNF-induced necroptosis signaling by blocking RIP3 kinase activity. […] The effect of HS-1371 on RIP3 kinase activity was compared with another RIP3 inhibitor, GSK’872[16].
# HeLa cells = HeLa cells ectopically expressing RIP3 (immunoblot, MTT); assay type: cell-based, human
# Procedure: HEK293T, HT-29, H2009, L929, HeLa, and MEF cells were grown in Dulbecco’s Modified Eagle’s Medium (DMEM) supplemented with 10% fetal bovine serum (FBS). RAW264.7 cells were grown in Roswell Park Memorial Institute (RPMI) 1640 media supplemented with 10% FBS. To generate cell lines stably expressing the RIP3 construct, HeLa and H2009 cells were infected with pLX303-hRIP3 lentivirus.
# Cells were pretreated with DAB or HS-1371 for 2 h and then treated with TSZ (6 h for immunoblotting, 24 h for cell death assay). Cell lysates were analyzed by immunoblotting (left bottom panel), and cell viability was analyzed by MTT assay (right panel). The results are presented as means ± SEM. *P < 0.05, **P < 0.01, ***P < 0.001. c, d HS-1371 had the same effect on mouse cells. L929 (mouse sarcoma, c) and MEF (mouse embryonic fibroblast, d) cells were pretreated with inhibitors and then necroptosis was induced by TNF. Cell lysates were analyzed by immunoblotting (upper panel), and cell viability was analyzed by MTT assay (bottom panel). The results are presented as means ± SEM. *P < 0.05, **P < 0.01, ***P < 0.001
structure (smiles),measurement,setting,value
"Cc1ccc(Oc2ccnc3cc(-c4cnn(C5CCNCC5)c4)ccc23)cc1 [HS-1371, 7-(1-(Piperidin-4-yl)-1H-pyrazol-4-yl)-4-(p-tolyloxy)quinoline]","IL-1β, IL-6 and TNF-α expression",[1],reduced
same,"RIP3 phosphorylation, pre-treatment and post-treatment","RIP3; HT-29, 5 μM, pretreated 1 h or applied 1 or 2 h after induction",completely inhibited
same,"MLKL phosphorylation, post-treatment after TSZ","RIP3; HT-29, post-treatment until approximately 5 h after TSZ",partially blocked
same,"RIP3 phosphorylation, pre-treatment and post-treatment, low concentrations","RIP3; HT-29, pretreated 1 h or applied 1 or 2 h after induction, low concentrations",partial inhibitory effect
same,effect on TNF-induced necroptosis signaling (phosphorylation of RIP3 and MLKL),"RIP3; HT-29, pretreated 2 h, TSZ 6 h",complete inhibitory effect
same,basal RIP3 phosphorylation,"HeLa cells; HeLa with ectopic RIP3, 6 h, dose-dependent",decreased
same,cell viability after TSZ,"HeLa cells; HeLa with ectopic RIP3, TSZ 24 h, MTT, dose-dependent",gradually increased
same,TSZ-induced RIP3 phosphorylation and MLKL phosphorylation,"HeLa cells; HeLa with ectopic RIP3, pretreated 2 h, TSZ 6 h",effectively blocked
